Legend:
human TGR5 receptor = biological target: T1, human TGR5 receptor (Homo sapiens, UniProt Q8TDU6); assay: Human TGR5 cAMP production assay; assay type: cell-based; settings: human TGR5, luminescent cAMP assay; coded A-D; read-out: Human TGR5 Lum. cAMP Activity (EC50)
T1 construct: host or cells: CHO-K1 (hTGR5-CHO cells)
T1 sequence (Q8TDU6 1-330): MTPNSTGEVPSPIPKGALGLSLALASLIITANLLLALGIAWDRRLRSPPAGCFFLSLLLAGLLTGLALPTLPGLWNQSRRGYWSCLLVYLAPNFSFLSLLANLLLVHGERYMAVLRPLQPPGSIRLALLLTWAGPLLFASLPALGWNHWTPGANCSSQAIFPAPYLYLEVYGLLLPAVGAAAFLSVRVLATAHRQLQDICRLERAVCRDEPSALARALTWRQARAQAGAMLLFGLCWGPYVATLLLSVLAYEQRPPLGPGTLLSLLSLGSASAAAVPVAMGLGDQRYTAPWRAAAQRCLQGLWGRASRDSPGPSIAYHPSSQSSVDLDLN
Method in brief: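 Intracellular cAMP read by luminescent enzyme-complementation (XS+) after overnight development, following 1 h room-temperature compound treatment of hTGR5-CHO-K1 cells in IBMX plus anti-cAMP antibody. Compounds tested as half-log dilution series; EC50 derived.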

mouse TGR5 receptor [1] = biological target: T2, mouse TGR5 receptor (Mus musculus, UniProt Q80SS6); assay: Mouse TGR5 cAMP production assay (luminescent, DiscoveRx cAMP XS+); assay type: cell-based; settings: HEK293-EBNA cells overexpressing mouse TGR5, luminescent cAMP XS+; coded A-D; read-out: Mouse TGR5 Lum. cAMP Activity (EC50)
T2 construct: expressed in transfected cells; host or cells: HEK293-EBNA (293 c18, ATCC CRL10852), Hygromycin B selection
T2 sequence (Q80SS6 1-329): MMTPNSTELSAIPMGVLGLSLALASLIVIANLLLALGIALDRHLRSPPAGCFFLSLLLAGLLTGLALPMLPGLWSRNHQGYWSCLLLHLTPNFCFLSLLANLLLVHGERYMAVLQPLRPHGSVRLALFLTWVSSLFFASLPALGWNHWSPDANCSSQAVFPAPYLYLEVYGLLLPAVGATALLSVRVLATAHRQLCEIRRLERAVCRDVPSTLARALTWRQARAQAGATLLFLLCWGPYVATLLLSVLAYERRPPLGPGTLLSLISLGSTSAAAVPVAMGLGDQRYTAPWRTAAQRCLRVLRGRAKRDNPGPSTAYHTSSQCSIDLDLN
Method in brief: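 HEK293-EBNA cells stably expressing mouse TGR5 were suspended in serum-free DMEM with 500 μM IBMX and preincubated 20 min with cAMP antibody. They were then exposed to half-log compound dilutions for 1 h at room temperature. cAMP measured by enzyme-fragment complementation luminescence after overnight incubation; EC50 derived.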

Mouse STC-1 cells = assay: STC-1 GLP-1 assay; assay type: cell-based; settings: GLP-1 secretion, 2 h, coded A-C, read-out: Mouse STC-1 HTRF GLP-1 Activity (EC50)
Procedure: We evaluated Compounds of the present invention for their ability to induce GLP-1 production in mouse intestinal neuroendocrine tumor cells. Mouse STC-1 cells were cultured and maintained in high glucose DMEM (Sigma #5796) supplemented with 15% horse serum, 5% Fetal Bovine Serum (FBS), 1% penicillin/streptomycin, and 2 mM L-alanine L-glutamine (GlutaMax). Two days prior to analysis of GLP-1 secretion cells were harvested using Accutase (Sigma), spun down then resuspended in high glucose DMEM media containing 2 mM L-alanine L-glutamine (GlutaMax), 10% charcoal-dextran stripped FBS, and 50 μg/mL Gentamicin, at a density of 100,000 cells/mL. 100 μL of cell suspension was added to each well of a 96-well Poly-D-Lysine coated culture plate (Sigma; cat #2382493) and was incubated at 37° C. with 5% CO2.
Compounds were initially diluted in 100% DMSO (12-point serial dilution by half logs) in a 96-well plate and then were further diluted 1:500 in Hanks' Balanced Salt Solution (HBSS) containing protease inhibitor cocktail, DPP-IV inhibitor, and 0.1% fatty acid free bovine serum albumin. On the day of the experiment cells were washed once with HBSS. After wash, 100 μL of test compound was added to each well. The plate was incubated at 37° C. with 5% CO2 for 2 h. Supernatants were collected and GLP-1 secretion was measured using the Cisbio™ Active GLP-1 HTRF Assay Kit (Cisbio). Briefly, Anti-GLP-1-d2 conjugate and Anti-GLP-1 Terbium Cryptate conjugate stock solutions were prepared as per kit instructions. The two solutions were pre-mixed and 10 μL were transferred to a 384-well low volume plate (Greiner; cat #784075). 10 μL of collected supernatants were added to wells already containing the conjugate solution. The plate was covered and incubated at room temperature overnight. The plate was read on an Envision™ plate reader (Perkin Elmer).
In Table 34, EC50 values obtained from the STC-1 GLP-1 production assay for compounds of the present invention are summarized.

mouse TGR5 receptor [2] = biological target: T2, mouse TGR5 receptor; assay: Mouse TGR5 cAMP production assay (HTRF, Cisbio cAMP HiRange); assay type: cell-based; settings: HEK293-EBNA cells overexpressing mouse TGR5, HTRF cAMP HiRange; coded A-D
Method in brief: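 cAMP read by HTRF competition after 1 h room-temperature compound exposure of mouse TGR5-overexpressing HEK293-EBNA cells. Cells were suspended in serum-free DMEM containing 500 μM IBMX; compounds ran as 12-point half-log dilutions in duplicate; EC50 derived.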

[3] = Absorption vs. first pass metabolism: Cmax with and without 1-aminobenzotriazole (ABT) pre-treatment; assay type: in vivo, mouse; settings: ICR mice, ABT 150 mg/kg p.o. 2 h before; compound 10 mg/kg p.o.
Procedure: Absorption Vs. First Pass Metabolism
In this study, the absorption was examined as compared to first pass metabolism of the compounds of the present invention. ICR mice (Hilltop) were pre-treated with 1-aminobenzotriazole (ABT), a nonselective inhibitor of cytochrome P450 enzymes to inhibit Cyp450-mediated degradation of the compounds in liver.
ABT was administered at 150 mg/kg in 5 mL/kg of 0.04% ethanol in 0.5% methyl cellulose (w/v) by oral gavage, 2 hours prior to test compound administration. The compounds 20AA and 20AC were administered by oral gavage at 10 mg/kg in 10 mL/kg of 20% PEG400/80% (0.5% (w/v) CMC containing 0.25% (v/v) Tween 80) (v/v), 2 hours after the ABT treatment. Blood was collected via orbital bleeding at predose, 0.25, 0.5, 1, 2, and 4 hours post-dose and the quantification of compound levels in plasma was accomplished by means of LC-MS/MS analysis as described in Example 59. Reference compound “Propranolol” that is known to be metabolized by Cyp450 was used as a positive control.
FIG. 4 depicts the Cmax (nM) of the compounds of the present invention with and without ABT pre-treatment.

Row | SMILES | EC50 (human TGR5 receptor) | EC50 (mouse TGR5 receptor [1]) | EC50 (Mouse STC-1 cells) | EC50 (mouse TGR5 receptor [2]) | Cmax with versus without ABT pre-treatment [3]
1 | COc1cnccc1-c1cccc(C(C)(C)NS(=O)(=O)c2ccccc2[N+](=O)[O-])c1 [Compound 2AU] | < 100 nM | < 100 nM | 1000 to 30000 nM |  | 
2 | COc1cnccc1-c1cccc(C(C)(C)NS(=O)(=O)c2ccccc2C(F)(F)F)c1 [Compound 2AV] | < 100 nM | 100 to 999 nM | 1000 to 30000 nM |  | 
3 | COc1cnccc1-c1cccc([C@H](C)NS(=O)(=O)c2ccccc2C(F)(F)F)c1 [Compound 2BQ] | < 100 nM | 100 to 999 nM | 1000 to 30000 nM |  | 
4 | CCOc1cnccc1-c1cccc(C(C)(C)NS(=O)(=O)c2ccccc2C(F)(F)F)c1 [Compound 8AC, N-(2-(3-(3-ethoxypyridin-4-yl)phenyl)propan-2-yl)-2-(trifluoromethyl)benzenesulfonamide] | < 100 nM | 100 to 999 nM | 100 to 999 nM |  | 
5 | CCOC(=O)C[C@H](NS(=O)(=O)c1ccccc1C(F)(F)F)c1cccc(-c2ccncc2C)c1 [Compound 18A, (S)-ethyl 3-(3-(3-methylpyridin-4-yl)phenyl)-3-(2-(trifluoromethyl)phenylsulfonamido)-propanoate] | < 100 nM |  | 1000 to 30000 nM | < 100 nM | 
6 | Cc1cnccc1-c1cccc(C2CN(CCCC(=O)NCS(=O)(=O)O)CCN2S(=O)(=O)c2cccc(Cl)c2C)c1 (stereo not shown) [Compound 53, (4-(4-((3-Chloro-2-methylphenyl)sulfonyl)-3-(3-(3-methylpyridin-4-yl)phenyl)piperazin-1-yl)butanamido)methanesulfonic acid] | 100 to 999 nM |  | 100 to 999 nM | < 100 nM | 
7 | CC(C)NCC(O)COc1cccc2ccccc12 (stereo not shown) [propranolol, Propranolol, reference compound] |  |  |  |  | significantly higher
